Results on 26 compounds are retold here after patent US9388164B2, “Methods of using pyruvate kinase activators” (AGIOS PHARMACEUTICALS, INC, priority 2011, dated 2016).

Type in all cases: biochemical
One assay has as its target PKR R510Q (Homo sapiens, UniProt P30613, R510Q). Briefly: PKR R510Q Single Point Percent Activation Assay. To be noted: compound at 1 μM; read-out: % Act. R510Q. The protocol:
PKR R510Q Single Point Percent Activation Assay
(§1) A compound described herein was diluted with DMSO and tested at 1 μM concentration. The enzyme was diluted in 1× Buffer: (100 mM KCl, 50 mM Tris 7.5, 5 mM MgCl2, 1 mM DTT, 0.03% BSA). 2 μL of compound solution was first added into wells, and then 180 μL of enzyme solution was added. Assays were assembled except for ADP, and plates were stored for 60 minutes at RT. 20 μL ADP was added to start the assay and assay output was evaluated using OD340 at SpectraMax. The assay was run at room temperature.
PKR R510Q (40 ng/well), Tris pH 7.5 (50 mM), KCl (100 mM), MgCl2 (5 mM), ADP (0.2 mM), PEP (0.11 mM), NADH (180 μM), LDH (0.5 units, Sigma 59023), DTT (1 mM) and BSA (0.03%).

For another assay, the target named is PKR R532W (Homo sapiens, UniProt P30613, R532W). Briefly: PKR R532W Single Point Percent Activation Assay. To be noted: compound at 1 μM; for activation at 1 µM: read-out: % Act. R532W. As to the method: PKR R532W Single Point Percent Activation Assay
Sequence of PKR R532W (P30613 whole entry R532W): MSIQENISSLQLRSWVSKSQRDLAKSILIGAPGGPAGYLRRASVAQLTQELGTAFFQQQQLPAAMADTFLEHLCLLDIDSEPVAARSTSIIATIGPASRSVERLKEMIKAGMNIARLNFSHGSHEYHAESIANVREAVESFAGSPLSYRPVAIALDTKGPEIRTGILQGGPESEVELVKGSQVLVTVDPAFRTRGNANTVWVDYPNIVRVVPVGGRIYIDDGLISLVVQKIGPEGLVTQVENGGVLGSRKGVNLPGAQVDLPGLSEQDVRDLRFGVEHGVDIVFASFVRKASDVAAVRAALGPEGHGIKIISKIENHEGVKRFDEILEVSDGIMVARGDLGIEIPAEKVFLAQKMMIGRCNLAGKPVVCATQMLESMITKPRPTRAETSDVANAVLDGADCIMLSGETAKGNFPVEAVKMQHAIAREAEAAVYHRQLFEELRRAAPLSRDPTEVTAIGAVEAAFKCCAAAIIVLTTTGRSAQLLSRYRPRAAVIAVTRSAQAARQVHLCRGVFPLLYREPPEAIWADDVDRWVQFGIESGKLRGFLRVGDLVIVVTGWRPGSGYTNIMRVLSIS
as §1
PKR R532W (100 ng/well), Tris pH 7.5 (50 mM), KCl (100 mM), MgCl2 (5 mM), ADP (0.36 mM), PEP (0.1 mM), NADH (180 μM), LDH (0.5 units, Sigma 59023), DTT (1 mM) and BSA (0.03%).

The target of another assay is PKR T384W (Homo sapiens, UniProt P30613). Briefly: PKR T384W Single Point Percent Activation Assay. To be noted: compound at 1 μM. As to the method: PKR T384W Single Point Percent Activation Assay
Sequence of PKR T384W (P30613 whole entry T384M): as the sequence (P30613 whole entry R532W) above, with T384M, W532R counted along it
A compound described herein was diluted with DMSO and tested at 1 μM concentration. The enzyme was diluted in 1× Buffer: (100 mM KCl, 50 mM Tris 7.5, 5 mM MgCl2, 1 mM DTT, 0.03% BSA). 2 μL of compound solution was first added into wells, and then 180 μL enzyme solution was added. Assays were assembled except for ADP, and plates were stored for 60 minutes at RT. 20 μL ADP was added to start the assay and assay output was evaluated using OD340 at SpectraMax. The assay was run at room temperature.
PKR T384W soluble (300 ng/well), Tris pH 7.5 (50 mM), KCl (100 mM), MgCl2 (5 mM), ADP (0.08 mM), PEP (0.23 mM), NADH (180 μM), LDH (0.5 units, Sigma 59023), DTT (1 mM) and BSA (0.03%).

The target in a further assay is PKR wt (Homo sapiens, UniProt P30613). Briefly: PKR WT Single Point Percent Activation Assay. Particulars: compound at 1 μM. As to the method:
PKR WT Single Point Percent Activation Assay
as §1
PKR wt (100 ng/well), Tris pH 7.5 (50 mM), KCl (100 mM), MgCl2 (5 mM), ADP (0.48 mM), PEP (0.15 mM), NADH (180 μM), LDH (0.5 units, Sigma 59023), DTT (1 mM) and BSA (0.03%).

Sequence of PKR wt (P30613 whole entry): as the sequence (P30613 whole entry R532W) above, with W532R counted along it
Sequence of PKR R510Q (P30613 whole entry R510Q): as the sequence (P30613 whole entry R532W) above, with R510Q, W532R counted along it

Take `O=C(NC1CN(C(=O)c2ccc(NS(=O)(=O)c3cccc4cccnc34)cc2)C1)c1ccccn1` [drawing 8]: the activation at 1 µM on PKR R510Q and at PKR wt was 101 to 500% throughout. Further, at PKR R532W, the “% Act. R532W” value is “A (a % activation at 1 μM of from 1 to 100)”. For the same compound, the “% Act. T384W” value on PKR T384W is recorded as “B (a % activation at 1 μM of from 101 to 500)”.
Regarding `COc1ccccc1OC1CN(C(=O)c2ccc(NS(=O)(=O)c3cccc4cccnc34)cc2)C1`, the activation at 1 µM lay within 101 to 500% on PKR R510Q, 1 to 100% on PKR R532W and 101 to 500% at PKR wt. In addition, on PKR T384W, the “% Act. T384W” value is reported as “B (a % activation at 1 μM of from 101 to 500)”.
`C=CCNC(=O)NC1CN(C(=O)c2ccc(NS(=O)(=O)c3cccc4cccnc34)c(OC)c2)C1`: the activation at 1 µM on PKR R510Q, at PKR R532W and on PKR wt was 101 to 500% each time. For the same compound, the “% Act. T384W” value at PKR T384W is “B (a % activation at 1 μM of from 101 to 500)”.
In the case of `Cc1cc(C(=O)N2CC(OC(=O)NC(C)C)C2)ccc1NS(=O)(=O)c1cccc2cccnc12`, the activation at 1 µM at PKR R510Q, at PKR R532W and at PKR wt was 101 to 500% in each case. In addition, the “% Act. T384W” value on PKR T384W was “A (a % activation at 1 μM of from 1 to 100)”.
For the compound `COC1(Cc2ccccc2)CN(C(=O)c2ccc(NS(=O)(=O)c3cccc4cccnc34)cc2)C1`, the activation at 1 µM on PKR R510Q, on PKR R532W and at PKR wt was 101 to 500% each time. Also, the “% Act. T384W” value at PKR T384W is recorded as “B (a % activation at 1 μM of from 101 to 500)”.
On to `COc1cc(NS(=O)(=O)c2cccc3cccnc23)ccc1C(=O)N1CC(O)(c2ccccc2)C1`, for which the activation at 1 µM on PKR R510Q, at PKR R532W and on PKR wt was 101 to 500% throughout. For the same compound, on PKR T384W, the “% Act. T384W” value is “B (a % activation at 1 μM of from 101 to 500)”.
With `COc1cc(NS(=O)(=O)c2cccc3cccnc23)ccc1C(=O)N1CC(O)C1`, the activation at 1 µM on PKR R510Q, on PKR R532W and on PKR wt was 101 to 500% in each case. Besides, the “% Act. T384W” value on PKR T384W is “A (a % activation at 1 μM of from 1 to 100)”.
As to `Cc1cc(C(=O)N2CC(Nc3ccccc3)C2)ccc1NS(=O)(=O)c1cccc2cccnc12`, the activation at 1 µM at PKR R510Q, at PKR R532W and at PKR wt was 101 to 500% each time. Further, on PKR T384W, the “% Act. T384W” value is on record as “B (a % activation at 1 μM of from 101 to 500)”.
On to `COc1cccnc1NC1CN(C(=O)c2ccc(NS(=O)(=O)c3cccc4cccnc34)c(C)c2)C1`, for which the activation at 1 µM at PKR R510Q, on PKR R532W and on PKR wt was 101 to 500% in each case. Also, the “% Act. T384W” value on PKR T384W is on record as “B (a % activation at 1 μM of from 101 to 500)”.
Regarding `O=C(Nc1ccccn1)OC1CN(C(=O)c2ccc(NS(=O)(=O)c3cccc4cccnc34)cc2)C1` [drawing 65], the activation at 1 µM at PKR R510Q, on PKR R532W and on PKR wt was 101 to 500% throughout. Moreover, the “% Act. T384W” value at PKR T384W is “B (a % activation at 1 μM of from 101 to 500)”.
Take `CC1(O)CN(C(=O)c2ccc(NS(=O)(=O)c3cccc4cccnc34)c(F)c2)C1`: the activation at 1 µM on PKR R510Q is 101 to 500%; at PKR R532W, 1 to 100%; at PKR wt, 101 to 500%. Further, the “% Act. T384W” value at PKR T384W was “B (a % activation at 1 μM of from 101 to 500)”.
Turning to `O=C(c1ccc(NS(=O)(=O)c2cccc3cccnc23)cc1)N1CC(NCc2ccccc2)C1`, the activation at 1 µM on PKR R510Q, on PKR R532W and at PKR wt was 101 to 500% in each case. In addition, at PKR T384W, the “% Act. T384W” value was “B (a % activation at 1 μM of from 101 to 500)”.
Regarding `Cc1cc(C(=O)N2CC(OC(=O)c3ccccn3)C2)ccc1NS(=O)(=O)c1cccc2cccnc12`, the activation at 1 µM fell in the range of 101 to 500% at PKR R510Q, 1 to 100% on PKR R532W and 1 to 100% at PKR wt. The “% Act. T384W” value at PKR T384W is “A (a % activation at 1 μM of from 1 to 100)”.
`Cc1cc(C(=O)N2CC(O)C2)ccc1NS(=O)(=O)c1cccc2cccnc12`: the activation at 1 µM at PKR R510Q, on PKR R532W and at PKR wt was 101 to 500% in each case. The “% Act. T384W” value at PKR T384W is listed as “A (a % activation at 1 μM of from 1 to 100)”.
In the case of `CC(C)NC(=O)OC1CN(C(=O)c2ccc(NS(=O)(=O)c3cccc4cccnc34)cc2)C1`, the activation at 1 µM on PKR R510Q, on PKR R532W and on PKR wt was 101 to 500% in each case. Also, at PKR T384W, the “% Act. T384W” value was “B (a % activation at 1 μM of from 101 to 500)”.
For `O=C(c1ccc(S(=O)(=O)Nc2cccc3cccnc23)cc1)N1CC(OCc2ccccc2)C1`, the activation at 1 µM at PKR R510Q fell in the range of 101 to 500%; on PKR R532W, 1 to 100%; at PKR wt, 101 to 500%. Besides, the “% Act. T384W” value at PKR T384W is given as “B (a % activation at 1 μM of from 101 to 500)”.
`COc1ccccc1OC1CN(C(=O)c2ccc(NS(=O)(=O)c3cccc4cccnc34)c(F)c2)C1`: the values for the activation at 1 µM at PKR R510Q, on PKR R532W and on PKR wt were 1 to 100%, 101 to 500% and 101 to 500%, respectively. Also, the “% Act. T384W” value on PKR T384W was “B (a % activation at 1 μM of from 101 to 500)”.
Consider `C=CCNC(=O)NC1CN(C(=O)c2ccc(NS(=O)(=O)c3cccc4cccnc34)cc2)C1`, for which the activation at 1 µM on PKR R510Q, on PKR R532W and at PKR wt was 101 to 500% throughout. Besides, the “% Act. T384W” value on PKR T384W is listed as “B (a % activation at 1 μM of from 101 to 500)”.
Turning to `Cc1cc(C(=O)N2CC(C)(O)C2)ccc1NS(=O)(=O)c1cccc2cccnc12`, the activation at 1 µM on PKR R510Q, at PKR R532W and on PKR wt was 101 to 500% in each case. Moreover, the “% Act. T384W” value on PKR T384W is listed as “B (a % activation at 1 μM of from 101 to 500)”.
Turning to `Cc1cc(C(=O)N2CC(OC(=O)Nc3ccccn3)C2)ccc1NS(=O)(=O)c1cccc2cccnc12`, the values for the activation at 1 µM at PKR R510Q, on PKR R532W and on PKR wt were 101 to 500%, 101 to 500% and 1 to 100%, respectively. At PKR T384W, the “% Act. T384W” value is reported as “A (a % activation at 1 μM of from 1 to 100)”.
As for `CN(c1ccccc1)C1CN(C(=O)c2ccc(NS(=O)(=O)c3cccc4cccnc34)cc2)C1`, the activation at 1 µM on PKR R510Q, at PKR R532W and at PKR wt was 101 to 500% throughout. Besides, the “% Act. T384W” value at PKR T384W was “B (a % activation at 1 μM of from 101 to 500)”.
For the compound `COc1ccccc1N(C)C1CN(C(=O)c2ccc(NS(=O)(=O)c3cccc4cccnc34)cc2)C1` [drawing 21], the activation at 1 µM at PKR R510Q and on PKR wt was 101 to 500% each time. Also, the “% Act. R532W” value on PKR R532W was “B (a % activation at 1 μM of from 101 to 500)”. In addition, the “% Act. T384W” value at PKR T384W is recorded as “A (a % activation at 1 μM of from 1 to 100)”.
For `O=C(OC1CN(C(=O)c2ccc(NS(=O)(=O)c3cccc4cccnc34)c(F)c2)C1)c1ccccn1`, the activation at 1 µM at PKR R510Q, at PKR R532W and at PKR wt was 101 to 500% in each case. Also, the “% Act. T384W” value on PKR T384W is “B (a % activation at 1 μM of from 101 to 500)”.
`Cc1cc(C(=O)N2CC(O)(c3ccccc3)C2)ccc1NS(=O)(=O)c1cccc2cccnc12`: the activation at 1 µM at PKR R510Q, at PKR R532W and at PKR wt was 101 to 500% throughout. Besides, on PKR T384W, the “% Act. T384W” value was “B (a % activation at 1 μM of from 101 to 500)”.
`O=C(Cc1ccccc1)OC1CN(C(=O)c2ccc(NS(=O)(=O)c3cccc4cccnc34)cc2)C1`: the activation at 1 µM fell in the range of 101 to 500% on PKR R510Q, 1 to 100% at PKR R532W and 101 to 500% on PKR wt. For the same compound, on PKR T384W, the “% Act. T384W” value was “B (a % activation at 1 μM of from 101 to 500)”.
As to `O=C(Nc1ccccn1)NC1CN(C(=O)c2ccc(NS(=O)(=O)c3cccc4cccnc34)cc2)C1`, the activation at 1 µM on PKR R510Q, on PKR R532W and on PKR wt was 101 to 500% throughout. Besides, the “% Act. T384W” value at PKR T384W is “B (a % activation at 1 μM of from 101 to 500)”.
